Blank lines part the entries; values can stand above or below the compound they belong to.
Legend:
SEAP expression = assay: In vivo SEAP production in mouse serum (Phospha-Light assay); parameters: species or system mice
[1] = Encapsulation efficiency by Ribogreen assay; assay type: physicochemical; settings: formulated at pH 5
Description: As used herein, “encapsulated” can refer to a nanoparticle that provides an active agent or therapeutic agent, such as a nucleic acid (e.g., a messenger RNA), with full encapsulation, partial encapsulation, or both. In a preferred embodiment, the nucleic acid is fully encapsulated in the nanoparticle. In the context of nucleic acid therapeutic agents, full encapsulation may be determined by a Ribogreen® assay. RiboGreen® is an ultra-sensitive fluorescent nucleic acid stain for quantitating oligonucleotides and single-stranded DNA or RNA in solution (available from Thermo Fisher Scientific—US).
Nanoparticles containing compound 3:DOPE:cholesterol:DMG-PEG2k at molar ratios of 1:0.25:0.9625:0.0375 and RNA at two different weight ratios were formulated using NanoAssemblr Benchtop (Precision NanoSystems Inc, Vancouver, BC, Canada)). RNA was diluted with DNase/RNase-Free, endotoxin free distilled water and sterile acetate buffer to a final desired pH. Total flow rate was maintained at 8 mL per min at a 3:1 ratio of aqueous to organic phase for formulating on the Benchtop. Using glassware depyrogenated by heating at 250° C. for 24 h, nanoparticles were dialyzed against sterile, endotoxin-free PBS using 20,000 molecular weight cutoff dialysis. Dialyzed nanoparticles were sterile filtered using 0.2 micron poly(ether sulfone) filters and characterized with a Zetasizer NanoZS machine (Malvern). The size distributions were characterized by a single peak with a low polydispersity index. Encapsulation efficiency was measured to be 95% for the nanoparticle composition containing compound 3 and SEAP mRNA or SEAP replicon RNA (formulated at pH 5) using Ribogreen® assay (Geall et al. 10.1073/pnas.1209367109 which is incorporated herein by reference as if fully set forth).
(§1) Nanoparticles containing the compound 8:cholesterol:DOPE:DMG-PEG2k at molar ratios of 1:2:1.5:0.0375 were formulated using NanoAssemblr Benchtop (Precision NanoSystems Inc, Vancouver, BC, Canada)). RNA was diluted with Dnase/Rnase-Free, endotoxin free distilled water and sterile citrate buffer to a final desired pH. Total flow rate was maintained at 8 mL per min at a 3:1 ratio of aqueous to organic phase for formulating on the Benchtop. Using glassware depyrogenated by heating at 250° C. for 24 hours, nanoparticles were dialyzed against sterile, endotoxin-free PBS using 20,000 molecular weight cutoff dialysis. Dialyzed nanoparticles were sterile filtered using 0.2 micron poly(ether sulfone) filters and characterized with a Zetasizer NanoZS machine (Malvern). The size distributions were characterized by a single peak with a low polydispersity index. Encapsulation efficiency was measured to be 89% for the nanoparticle composition containing compound 8 and Replicon SEAP RNA (formulated at pH 5) using Ribogreen® assay.
as §1, with “8 or compound 9:cholesterol:DOPE DMG-PEG2k” for “8:cholesterol:DOPE:DMG-PEG2k”, “7,000” for “20,000”, “81%” for “89%”, “Luciferase Ψ mRNA” for “Replicon SEAP RNA”, “assay. Encapsulation efficiency was measured to be 82% for the nanoparticle composition containing compound 9 and Luciferase Ψ mRNA (formulated at pH 5). […]” for “assay.”

[2] = Hydrodynamic size measurement by dynamic light scattering (Zetasizer); assay type: physicochemical; settings: for Z average: DOPE, DMG-PEG 2000 and SEAP Replicon RNA; for Z average (size of strongest intensity): FIG. 4; for Z average (size of strongest intensity) / polydispersity index: compound 8 and SEAP RNA, hand mixing
Method: Additionally, with reference to FIG. 2, nanoparticles were formulated by mixing 21 μl of an ethanol phase containing compound 5 or compound 6, cholesterol, DOPE, and DMG PEG 2000 (PEG-lipid, Avanti Polar Lipids) at molar ratio of 1:2:1.5:0.0375 with 63 μl of SEAP Replicon RNA encoding secreted embryonic alkaline phosphatase (diluted with UltraPure, DNase/RNase-free, endotoxin-free distilled water (Invitrogen) and sterile 100 mM (pH 5) citrate buffer to a final citrate concentration of 10 mM. The resulting nanoparticles contained 4:1 mass ratio of compound 5 or compound 6 to RNA. Formulations were diluted 100-fold for analysis of particle size distribution, Z-average, and derived count rate using a Zetasizer Nano ZS (Malvern Panalytical).
The “Z average” of the nanoparticle composition containing compound 5 or compound 6, cholesterol, DOPE, DMG-PEG 2000 and SEAP Replicon RNA as function of size was determined by dynamic light scattering (DLS). […] Referring to FIG. 2, the size distributions were characterized with a low polydispersity index, indicating a relatively monodisperse size.
Reference to FIG. 4, nanoparticles were formulated by mixing 21 μl of an ethanol phase containing Compound 8, cholesterol, DOPE, and DMG PEG 2000 (PEG-lipid, Avanti Polar Lipids) at molar ratio of 1:2:1.5:0.0375 with 63 μl of Replicon RNA encoding secreted embryonic alkaline phosphatase (SEAP) diluted with UltraPure, DNase/RNase-free, endotoxin-free distilled water (Invitrogen) and sterile 100 mM (pH 5 or pH3) citrate buffer to a final citrate concentration of 10 mM. The derived NPs were characterized with a Zetasizer NanoZS machine (Malvern). The size distributions were characterized by a single peak with a low polydispersity index.
FIG. 4 illustrates distribution of the nanoparticle composition measured as the intensity (Z average) based on size (d.nm; diameter in nm) of the nanoparticles. Referring to FIG. 4, the “Z average” of the nanoparticle composition containing compound 8 and SEAP RNA as function of size was determined by dynamic light scattering (DLS). […] The polydispersity index of nanoparticles formulated with buffer pH 3 and pH 5 is 0.13 and 0.11, respectively, indicating a relatively monodisperse size.
as §1
The “Z average” of the nanoparticle composition containing compound 8, cholesterol, DOPE, DMG-PEG 2000 and SEAP Replicon RNA as function of size was determined by dynamic light scattering (DLS). […] Referring to Table 2, the size distributions were characterized with a low polydispersity index, indicating a relatively monodisperse size.
Nanoparticles containing the compound 8 or compound 9:cholesterol:DOPE DMG-PEG2k at molar ratios of 1:2:1.5:0.0375 were formulated using NanoAssemblr Benchtop (Precision NanoSystems Inc, Vancouver, BC, Canada)). RNA was diluted with Dnase/Rnase-Free, endotoxin free distilled water and sterile citrate buffer to a final desired pH. […]

[3] = as above; assay type: physicochemical; settings: cholesterol
[4] = cholesterol:DOPE:DMG-PEG2k nanoparticles with Luciferase Ψ mRNA
[5] = Table 3, DOPE, DMG-PEG 2000 and Luciferase Ψ mRNA
[6] = cholesterol:DSPC:DMG-PEG2k 50:38.5:10:1.5 nanoparticles with SEAP Ψ mRNA
[7] = FIG. 7, DSPC, DMG-PEG 2000 and SEAP Ψ mRNA

Encapsulation efficiency ([1]; nanoparticles compound 3:DOPE:cholesterol:DMG-PEG2k with SEAP mRNA or SEAP replicon RNA): 95%
SMILES: CCCCCCCCCCSSCCCCCCOC(=O)CCN(CCCCN(C)CCCNC(=O)CCCCCCC/C=C\C[C@@H](O)CCCCCC)CCC(=O)OCCCCCCSSCCCCCCCCCC [Compound 3]
SEAP protein production in vivo (SEAP expression; FIG. 1, SEAP replicon RNA and SEAP mRNA formulated with compound 3): resulted in SEAP protein production | SEAP expression in mouse serum, 10:1 versus 15:1 compound 3:RNA (SEAP expression; formulations with 10:1 compound 3:RNA, mice, 2 μg SEAP mRNA or SEAP replicon RNA, serum 16 hrs later): higher expression

SMILES: CCCCCCCCCCCCn1cc(COC(=O)CCN(CCCN(C)CCCNCCCO[C@H]2O[C@@H](COC(C)=O)[C@H](OC(C)=O)[C@@H](OC(C)=O)[C@@H]2OC(C)=O)CCC(=O)OCc2cn(CCCCCCCCCCCC)nn2)nn1 [Compound 6]
Z average ([2]; FIG. 2, hand mixing with cholesterol, pH 5 citrate, 4:1 mass ratio to RNA): 122.0 nm·days

SMILES: CCCCCCCCCCCCCCCCOC(=O)CCN(CCCCN(C)CCCNCCCOP(=O)(OCC)OCC)CCC(=O)OCCCCCCCCCCCCCCCC [Compound 8]
Z average (size of strongest intensity) ([2]; buffer pH 3): 133.7 nm·days | Z average (size of strongest intensity) ([2]; buffer pH 5): 191.3 nm·days | Z average ([2]; Table 2, compound 8, cholesterol, microfluidic mixing): 78.2 nm·days | polydispersity index ([2]; buffer pH 3): 0.13 | polydispersity index ([2]; buffer pH 5): 0.11 | Encapsulation efficiency [1, 4]: 81% | Encapsulation efficiency ([1]; compound 8:cholesterol:DOPE:DMG-PEG2k with Replicon SEAP RNA, microfluidic mixing): 89% | Z average [3, 5]: 76.5 nm·days

Encapsulation efficiency [1, 4]: 82% | Z average [3, 5]: 80.9 nm·days
SMILES: CCCCCCCCCCCCCCCCOC(=O)CCN(CCCCN(C)CCCNCCCO[C@@H]1O[C@H](COC(C)=O)[C@@H](OC(C)=O)[C@H](OC(C)=O)[C@H]1OC(C)=O)CCC(=O)OCCCCCCCCCCCCCCCC [Compound 9]

Encapsulation efficiency [1, 6]: 89% | Z average [3, 7]: 129.5 nm·days
SMILES: CCCCCCCCCCCCOC(=O)CCSSCCC(=O)NCCCN(C)CCCN(CCC(=O)OCCCCCCCC)CCC(=O)OCCCCCCCC [Compound 13]
SEAP expression in mice serum, compound 13 compared to compound 18 (SEAP expression; FIG. 8, BALB/c mice, approximately 2 μg, SEAP Ψ mRNA nanoparticles formulated at pH 5): better SEAP expression

Encapsulation efficiency [1, 6]: 84% | Z average [3, 7]: 74.8 nm·days
SMILES: CCCCCCCCCCCCOC(=O)CCCCCCC(=O)NCCCN(C)CCCN(CCC(=O)OCCCCCCCC)CCC(=O)OCCCCCCCC [Compound 18]

From patent publication US12491262B2, “Gene delivery agents” (TIBA Biotech LLC, priority 2023, dated 2025)
